In publication PMC9257522, “Machine Learning for Discovery of New ADORA Modulators” (Frontiers in Pharmacology, 2022):
“And” between values parts separate entries of the source, which are not always exact repeats. Equal entries are not always repeated. “Also recorded” adds a separate entry of the source. Structures can show the parent of a compound that is named as a salt. Where two headings read alike, the source gives them in different places.

Assays:
human A1AR [1] = tested on: T1, human A1AR; assay: A1AR cAMP assay, HEK293 A1AR Nomad cell line (Innoprot), agonist mode; type: cell-based; conditions: compounds at 10 µM, normalized to 10 µM NECA (100%) and vehicle DMSO (0%)
T1 construct: host or cells: HEK293 A1AR Nomad cell line
From the text: For screening of the initial compounds predicted by machine learning models to activate A1AR receptor, we used the HEK293 A1AR Nomad cell line, which consists of HEK293 cells stably expressing human A1AR with no tag. This cell line has been designed to assay compounds or analyze their capability to modulate the A1AR. When the agonist binds to A1AR in this engineered cell line a Go protein is activated, which in turn, triggers a cellular response mediated by cAMP inhibition. This cellular response can be measured by quantifying the increase in fluorescence intensity and its cellular distribution. An agonist assay was performed for 29 compounds (predicted to be active by the machine learning model) in the human recombinant HEK293 A1AR Nomad cell line using a fluorescence-based assay. An agonist effect of the compounds was measured by quantifying the changes in the fluorescence emission cAMP Nomad biosensor, this elevation of fluorescence was analyzed using a plate reader Synergy 2 (Biotek, Winooski, VT). The error bars represent the standard deviation among the three replicate wells. The 29 compounds were tested at 10 μM using nonselective AR agonist adenosine-5′-N-ethyluronamide (NECA) at 10 μM as a reference.

human A1AR [2] = tested on: T1, human A1AR; assay: Radioligand displacement binding, [3H]DPCPX, HEK293 membranes; conditions: mean ± standard error, three independent experiments
Procedure: (§1) HEK293 cells stably expressing the human A1AR, A2AAR, A3AR were cultured in DMEM supplemented with 10% fetal bovine serum, 100 Units/ml penicillin, 100 µg/ml streptomycin, and 2 µmol/ml glutamine. To prepare cell membranes, cells were detached from culture plates by scraping into cold PBS and centrifuged at 250 g for 5 min. The pellets were resuspended in ice-cold PBS buffer (pH 7.4) and then homogenized. After homogenization and suspension, cells were centrifuged at 1,000 g for 10 min, and the pellet was discarded. The suspension was then re-centrifuged at 20,000 g for 60 min at 4°C. […] The aliquots of membrane preparations were stored at −80°C until the binding experiments. For displacement binding assays, membrane preparations (20 µg proteins/tube) were incubated at 25°C for 60 min with a final concentration of [^3H]DPCPX (0.5 nM), [^3H]ZM241385 (1.0 nM), […] [^125I]I-AB-MECA (0.1 nM) for A1AR, A2AAR, A3AR, respectively, in a mixture containing 50 µl of increasing concentrations of a test ligand in a total assay volume of 200 µl of 50 mM Tris HCl, pH 7.4, containing 10 mM MgCl2. Nonspecific binding was determined using 100 µM of XAC. The reaction was terminated by filtration with GF/B filters using a Brandel (Gaithersburg, MD) 24-channel harvester. Filters were placed in scintillation vials containing 5 ml of Hydrofluor scintillation buffer (National Diagnostics, Atlanta, GA) and counted using a Tricarb 2810TR liquid scintillation counter (PerkinElmer, Waltham, MA).

human A2AAR [3] = target: T2, human A2AAR (Homo sapiens, UniProt P29274); assay: Radioligand displacement binding, [3H]ZM241385, HEK293 membranes; conditions: mean ± standard error, three independent experiments
T2 construct: expressed in transfected cells; host or cells: HEK293
Procedure: as §1

human A2BAR = assay: Radioligand displacement binding, [3H]DPCPX
human A3AR [4] = target: T3, human A3AR (Homo sapiens, UniProt P0DMS8); assay: Radioligand displacement binding, [125I]I-AB-MECA, HEK293 membranes
T3 sequence (P0DMS8 1-318): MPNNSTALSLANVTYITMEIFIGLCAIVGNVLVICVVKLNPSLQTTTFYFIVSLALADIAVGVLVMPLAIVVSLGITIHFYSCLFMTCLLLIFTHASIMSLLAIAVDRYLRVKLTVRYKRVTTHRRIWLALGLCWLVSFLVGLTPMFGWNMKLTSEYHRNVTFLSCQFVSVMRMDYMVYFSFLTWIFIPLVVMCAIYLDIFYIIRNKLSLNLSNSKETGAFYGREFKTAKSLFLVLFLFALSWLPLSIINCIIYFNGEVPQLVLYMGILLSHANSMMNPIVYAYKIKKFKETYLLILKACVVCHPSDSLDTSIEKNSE
Procedure: as §1

A1AR [5] = tested on: T4, A1AR; assay: cAMP assay in AR-expressing HEK293 cells (ALPHAScreen), A1AR; type: cell-based, human; conditions: A1AR-expressing HEK cells, cAMP inhibition, Cl-ENBA reference full agonist
T4 construct: expressed in transfected cells; host or cells: HEK293
Procedure: (§2) HEK293 cells were grown in 96-well plates in DMEM supplemented with 10% fetal bovine serum, 100 Units/ml penicillin, 100 µg/ml streptomycin, and 2 µmol/ml glutamine. […] For A1AR and A3AR, after incubation with agonists for 20 min, forskolin (10 µM) was added and the mixture incubated for an additional 15 min. The reaction was terminated upon removal of the supernatant and addition of 100 µl Tween-20 (0.3%). Intracellular cAMP levels were measured with an ALPHAScreen cAMP assay kit as instructed by the manufacturer (PerkinElmer).

human A2AAR [6] = target: T2, human A2AAR; assay: cAMP assay in AR-expressing HEK293 cells (ALPHAScreen), A2AAR; type: cell-based; conditions: for cAMP, A2AAR activity (stimulation of cAMP) / Emax: A2AAR-expressing HEK293 cells; for Emax: reference full agonist = 100% stimulation; for EC50: HEK293 cells expressing human A2AAR, absence of antagonist, read-out: EC50, stimulation of cAMP, A2AAR
Procedure: as §2

A2BAR [7] = tested on: T5, A2BAR; assay: cAMP assay in AR-expressing HEK293 cells (ALPHAScreen), A2BAR; type: cell-based
T5 construct: expressed in transfected cells; host or cells: HEK293
Procedure: as §2

A1AR [8] = tested on: T6, A1AR; assay: A1AR-bla U2OS agonist screen (beta-arrestin/TEV, beta-lactamase reporter; Thermo Fisher); type: cell-based
T6 construct: host or cells: A1AR-bla U2OS
Procedure: A1AR-bla U2OS cells are thawed and resuspended in Assay Media (Freestyle media) to a concentration of 312,500 cells/ml. 32 μl of cell suspension (10,000 cells) was added to each well of a 384-well TC-Treated assay plate. Cells in Assay Media were incubated for 16–24 h in the plate at 37°C/5% CO2 in a humidified incubator. 4 μl aliquots of a 10X serial dilution of NECA (control agonist starting concentration, 500 nM) or compounds were added to appropriate wells of the plate. 4 μl of Assay Media was added to all wells to bring the final assay volume to 40 μl. The plate was incubated for 5 h at 37°C/5% CO2 in a humidified incubator. 8 μl of 1 μM substrate + Solution D Loading Solution was added to each well and the plate was incubated for 2 h at room temperature. The plate was read on a fluorescence plate reader.
(§3) This parental cell line stably expresses a beta‐arrestin/TEV protease fusion protein and the beta‐lactamase reporter gene under the control of a UAS response element. […] We also used a secondary assay PathHunter® β-Arrestin assay, which monitors the activation of A1AR in a homogenous, non-imaging assay format using a technology developed by DiscoverX called Enzyme Fragment Complementation (EFC) with β-galactosidase (β-Gal) as the functional reporter.

A1AR [9] = tested on: T6, A1AR; assay: PathHunter β-Arrestin assay (Eurofins/DiscoverX), agonist mode; type: cell-based; conditions: maximum concentration 20 µM; normalized to control agonist CPA and vehicle
Procedure: PathHunter cell lines were expanded from freezer stocks according to standard procedures. […] For agonist determination, cells were incubated with sample to induce response. Intermediate dilution of sample stocks was performed to generate 5X sample in assay buffer. […] Vehicle concentration was 1%. […] Microplates were read following signal generation with a PerkinElmer Envision™ instrument for chemiluminescent signal detection.
as §3

human A1 receptor = target: T7, human A1 receptor (Homo sapiens, UniProt P30542); assay: A1AR calcium influx assay in BA/F3 cells (Eurofins); conditions: maximum concentration tested 20 µM
T7 sequence (P30542 1-326): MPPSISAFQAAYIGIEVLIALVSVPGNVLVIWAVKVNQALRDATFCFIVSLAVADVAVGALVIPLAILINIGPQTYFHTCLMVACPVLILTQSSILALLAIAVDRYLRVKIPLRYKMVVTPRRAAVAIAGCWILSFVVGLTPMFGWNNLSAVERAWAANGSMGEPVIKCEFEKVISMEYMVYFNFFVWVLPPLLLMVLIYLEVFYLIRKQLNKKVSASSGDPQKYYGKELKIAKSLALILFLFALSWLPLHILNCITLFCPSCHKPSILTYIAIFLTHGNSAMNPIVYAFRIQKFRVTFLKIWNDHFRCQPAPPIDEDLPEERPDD
Procedure: This assay was performed using the screening services of Eurofins. Evaluation of the agonist activity of compounds at the human A1 receptor expressed in BA/F3 cells was determined by measuring their effect on cytosolic Ca^2+ ion mobilization using a fluorimetric detection method. The cells were suspended in HBSS buffer (Invitrogen) complemented with 20 mM Hepes and then distributed in microplates at a density of 5 × 10^4 cells/well. The fluorescent probe (Fluo8, AAT Bioquest, San Francisco, CA) mixed with probenicid in HBSS buffer (Invitrogen) complemented with 20 mM Hepes (Millipore, Burlington, MA) (pH 7.4) was then added into each well and equilibrated with the cells for 60 min at 30°C. Thereafter, the assay plates were positioned in a microplate reader (FlipR Tetra, Molecular Devices, San Jose, CA), which was used for the addition of the test compound, reference agonist or HBSS buffer (basal control), and for the measurements of changes in fluorescence intensity that varies proportionally to the free cytosolic Ca^2+ ion concentration.

human A3AR [10] = target: T3, human A3AR; assay: cAMP assay in AR-expressing HEK293 cells (ALPHAScreen), A3AR; type: cell-based; conditions: for cAMP, A3AR agonist activity: A3AR-expressing cells, MRS5698 reference full agonist
Procedure: as §2

A2BAR [11] = tested on: T5, A2BAR; conditions: background property of the receptor, no reference given, cited from earlier work
A3AR = conditions: background property of the receptor, no reference given; listed as ADO; cited from earlier work

T2 sequence (P29274 whole entry): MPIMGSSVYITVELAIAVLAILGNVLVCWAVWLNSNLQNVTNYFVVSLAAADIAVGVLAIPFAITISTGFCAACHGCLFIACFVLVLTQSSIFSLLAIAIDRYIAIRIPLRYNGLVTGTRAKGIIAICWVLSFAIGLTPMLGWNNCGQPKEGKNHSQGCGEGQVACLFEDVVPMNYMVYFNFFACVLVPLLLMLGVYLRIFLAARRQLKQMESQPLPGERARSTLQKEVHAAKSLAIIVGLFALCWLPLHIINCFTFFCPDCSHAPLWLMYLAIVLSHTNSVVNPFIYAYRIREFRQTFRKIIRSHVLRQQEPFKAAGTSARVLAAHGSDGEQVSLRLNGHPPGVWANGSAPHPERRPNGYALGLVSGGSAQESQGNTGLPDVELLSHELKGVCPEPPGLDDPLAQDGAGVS

## N#Cc1ccc(Oc2ccc3c(c2)COB3O)cc1 [Crisaborole]
Human A1AR [1]
  normalized activity with respect to the positive control: 98.52%
Human A1AR [2]
  Inhibition of specific binding, % inhibition at 100 µM, A1 ([3H]DPCPX): 36.9 ± 3.4%
Human A1AR [2]; listed as crisaborole
  Inhibition of specific binding, % inhibition at 100 µM, A1 ([3H]DPCPX): weakly binding
Human A2AAR [3]; 100 µM
  Inhibition of specific binding, % inhibition at 100 µM, A2A ([3H]ZM241385): No significant binding inhibition
Human A2AAR [3]; read-out: Inhibition of specific binding, % inhibition at 100 µM, A2A ([3H]ZM241385), 100 µM
  inhibition at 100 µM: 31.2 ± 5.6%
Human A2BAR
  Inhibition of specific binding, % inhibition at 100 µM, A2B ([3H]DPCPX): <10%
Human A3AR [4]; 100 µM, mean ± standard error, three independent experiments
  Inhibition of specific binding, % inhibition at 100 µM, A3 ([125I]I-AB-MECA): No significant binding inhibition
Human A3AR [4]; read-out: Inhibition of specific binding, % inhibition at 100 µM, A3 ([125I]I-AB-MECA), 100 µM, mean ± standard error, three independent experiments
  inhibition at 100 µM: 28.8 ± 16.3%
A1AR [5]
  cAMP, A1AR agonist activity: Not active
A1AR [5]; listed as crisaborole
  cAMP, A1AR agonist activity: without activity
Human A2AAR [6]
  cAMP, A2AAR activity (stimulation of cAMP): Active
  Emax: 67%
  EC50: 2.8 µM and 2.78 µM
A2BAR [7]; NECA reference full agonist (100%)
  cAMP Emax, A2BAR: Emax = 17%
A2BAR [7]; weaker than at the A2AAR
  cAMP accumulation, A2BAR: increased cAMP accumulation
A1AR [8]
  activation of A1AR, A1AR-bla U2OS cells: no activation; also recorded: without activity; also recorded: no agonist activity
A1AR [9]
  activation of A1AR, PathHunter β-Arrestin assay: no activation; also recorded: without activity; also recorded: no agonist activity
Human A1 receptor
  A1AR agonist activity, calcium influx assay: no activity
Human A1 receptor; listed as crisaborole
  A1AR agonist activity, calcium influx assay: without activity

## Fc1ccc([C@@H]2CCNC[C@H]2COc2ccc3c(c2)OCO3)cc1 [Paroxetine, Paroxetine Hydrochloride]
Human A1AR [1]
  normalized activity with respect to the positive control: 68.0%
Human A1AR [2]
  Inhibition of specific binding, % inhibition at 100 µM, A1 ([3H]DPCPX): 9.1 ± 3.9%
Human A2AAR [3]
  Ki, A2A ([3H]ZM241385): in the µM range
Human A2AAR [3]; read-out: Ki, A2A ([3H]ZM241385)
  Ki: 40.4 ± 9.8 µM
Human A3AR [4]; as worded in the Discussion
  Kd: 14.5 ± 9.7 µM
Human A3AR [4]; mean ± standard error, three independent experiments
  Ki, A3 ([125I]I-AB-MECA): in the µM range
Human A3AR [4]; mean ± standard error, three independent experiments, read-out: Ki, A3 ([125I]I-AB-MECA)
  Ki: 14.5 ± 9.7 µM
A1AR [5]
  cAMP, A1AR agonist activity: Not active
Human A2AAR [6]
  cAMP, A2AAR activity (stimulation of cAMP): weak activation; also recorded: Active
  Emax: 69%
  EC50: 14 µM
Human A3AR [10]; 100 µM
  agonist activity at the human A3AR at 100 µM: did not show any agonist activity
Human A3AR [10]
  cAMP, A3AR agonist activity: no activation; also recorded: Not active
Human A3AR [10]; listed as paroxetine
  cAMP, A3AR agonist activity: Lack of agonist effect
A1AR [8]
  activation of A1AR, A1AR-bla U2OS cells: no activation

## Cc1ccc(S(=O)(=O)/C=C/C#N)cc1 [BAY 11-7082, (E)-3-(4-methylphenylsulfonyl)-2-propenenitrile]
Human A1AR [1]
  normalized activity with respect to the positive control: 95.74%

## Nc1ncnc2c1ncn2[C@@H]1O[C@H](CO)[C@@H](O)[C@H]1O [Adenosine]
A2BAR [11]
  Adenosine affinity, A2BAR: Low affinity
A2BAR [11]; listed as ADO
  Adenosine affinity, A2BAR: relatively lower affinity
A3AR
  Adenosine affinity, A3AR: relatively lower affinity
